Experimental data reported in ChEMBL document CHEMBL6078698, “Discovery of 6-Fluoro-5-{4-[(5-fluoro-2-methyl-3-oxo-3,4-dihydroquinoxalin-6-yl)methyl]piperazin-1-yl}-N-methylpyridine-2-carboxamide (AZD9574): A CNS-Penetrant, PARP1-Selective Inhibitor” (J Med Chem, 2024).
In brackets after ≈: the same amount, converted by molar mass.

System: not listed separately
Experiment: Volume of distribution at steady state in Cynomolgous monkey at 1 mg/kg, po or 0.5 mg/kg, iv
Type: ADME, organism-based, Macaca fascicularis
Conditions: cynomolgus monkey, in vivo

Compound | Vdss
CNC(=O)c1ccc(N2CCN(Cc3ccc4nc(C)c(=O)[nH]c4c3F)CC2)c(F)n1 [AZD-9574] | 1.7 L/kg

System: not listed separately
Experiment: Ratio of unbound drug concentration in brain to plasma of rat
Type: ADME, cell-free
Conditions: brain

Compound | K(p,uu,brain)
CCc1nc2ccc(CN3CCN(c4ccc(C(=O)NC)nc4F)CC3)c(F)c2[nH]c1=O | 0.43

Same assay, conditions: brain and plasma (unbound), read-out: K(p,uu,brain)

Compound | Kp uu
CCc1nc2ccc(CN3CCN(c4ccc(C(=O)NC)nc4)CC3)cc2[nH]c1=O | 0.05
CCc1cc2ccc(CN3CCN(c4ccc(C(=O)NC)nc4)CC3)cc2[nH]c1=O | 0.1
CCc1nc2ccc(CN3CCN(c4ccc(C(=O)NC)nc4F)CC3)cc2[nH]c1=O | 0.1
CCc1nc2ccc(CN3CCN(c4ccc(F)nc4C)CC3)cc2[nH]c1=O | 0.36
CNC(=O)c1ccc(N2CCN(Cc3ccc4nc(C)c(=O)[nH]c4c3F)CC2)c(F)n1 [AZD-9574] | 0.31

Target: Poly [ADP-ribose] polymerase 1 (Homo sapiens, UniProt P09874)
Experiment: Inhibition of N-terminal 6His-tagged full-length recombinant human PARP1 by fluorescence anisotropy assay
Conditions: not given

Chain of Poly [ADP-ribose] polymerase 1 (P09874 whole entry): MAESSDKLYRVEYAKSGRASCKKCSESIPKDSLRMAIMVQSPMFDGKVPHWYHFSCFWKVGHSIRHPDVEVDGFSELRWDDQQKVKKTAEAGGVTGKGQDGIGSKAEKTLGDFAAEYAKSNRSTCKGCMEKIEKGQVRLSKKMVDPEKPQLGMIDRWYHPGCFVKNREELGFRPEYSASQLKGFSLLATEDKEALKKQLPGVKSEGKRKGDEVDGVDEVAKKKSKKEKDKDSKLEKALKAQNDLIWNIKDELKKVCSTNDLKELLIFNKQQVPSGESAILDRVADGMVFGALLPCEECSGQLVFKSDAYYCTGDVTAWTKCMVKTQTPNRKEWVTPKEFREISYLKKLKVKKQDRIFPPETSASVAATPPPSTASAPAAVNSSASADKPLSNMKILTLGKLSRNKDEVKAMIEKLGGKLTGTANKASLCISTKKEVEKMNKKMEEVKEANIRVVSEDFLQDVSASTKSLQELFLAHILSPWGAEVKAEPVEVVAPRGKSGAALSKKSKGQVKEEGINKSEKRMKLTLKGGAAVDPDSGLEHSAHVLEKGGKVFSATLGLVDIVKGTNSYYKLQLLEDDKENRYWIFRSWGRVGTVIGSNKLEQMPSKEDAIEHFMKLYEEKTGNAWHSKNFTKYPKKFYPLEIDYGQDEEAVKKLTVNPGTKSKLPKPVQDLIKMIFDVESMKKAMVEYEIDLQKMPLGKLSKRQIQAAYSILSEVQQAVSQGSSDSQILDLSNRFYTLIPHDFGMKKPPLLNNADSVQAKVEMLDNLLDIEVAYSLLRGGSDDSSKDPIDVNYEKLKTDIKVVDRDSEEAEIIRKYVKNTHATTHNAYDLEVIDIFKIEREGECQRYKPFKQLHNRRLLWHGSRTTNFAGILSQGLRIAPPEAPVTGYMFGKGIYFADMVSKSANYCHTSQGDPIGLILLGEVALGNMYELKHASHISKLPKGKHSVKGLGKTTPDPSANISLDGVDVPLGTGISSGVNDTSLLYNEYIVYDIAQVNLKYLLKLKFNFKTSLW

Compound | IC50
CCc1nc2ccc(CN3CCN(c4ccc(F)nc4C)CC3)cc2[nH]c1=O | 5 nM

System: DLD-1
Experiment: Antitumor activity against human DLD-1 cells expressing BRCA2-/- xenografted in mouse at 30 mg/kg administered once daily for 5 weeks relative to control
Type: functional
Conditions: DLD-1, 840 h, read-out: TGI

Compound | inhibition in vivo at 30 mg/kg
CNC(=O)c1ccc(N2CCN(Cc3ccc4nc(C)c(=O)[nH]c4c3F)CC2)c(F)n1 [AZD-9574] | 69%

System: not listed separately
Experiment: Unbound fraction in CD-1 mouse plasma at 1 mg/kg, po or 0.5 mg/kg, iv
Type: ADME, organism-based
Conditions: in vivo

Compound | Fu
CNC(=O)c1ccc(N2CCN(Cc3ccc4nc(C)c(=O)[nH]c4c3F)CC2)c(F)n1 [AZD-9574] | 20%

System: not listed separately
Experiment: Half life in CD-1 mouse at 1 mg/kg, po or 0.5 mg/kg, iv
Type: ADME, organism-based
Conditions: in vivo

Compound | half-life
CNC(=O)c1ccc(N2CCN(Cc3ccc4nc(C)c(=O)[nH]c4c3F)CC2)c(F)n1 [AZD-9574] | 4 h

System: not listed separately
Experiment: Solubility of compound at pH 7.4
Type: physicochemical
Conditions: buffer

Compound | solubility
CCc1nc2ccc(CN3CCN(c4ccc(C(=O)NC)nc4F)CC3)cc2[nH]c1=O | 4 µM (≈ 1.7 µg/mL)
CCc1nc2ccc(CN3CCN(c4ccc(F)nc4C)CC3)cc2[nH]c1=O | 30 µM (≈ 11.4 µg/mL)
CCc1nc2ccc(CN3CCN(c4ccc(C(=O)NC)nc4F)CC3)c(F)c2[nH]c1=O | < 11 µM
CNC(=O)c1ccc(N2CCN(Cc3ccc4nc(C)c(=O)[nH]c4c3F)CC2)c(F)n1 [AZD-9574] | 19 µM (≈ 8.14 µg/mL)

System: not listed separately
Experiment: Unbound fraction in Cynomolgous monkey plasma at 1 mg/kg, po or 0.5 mg/kg, iv
Type: ADME, organism-based, Macaca fascicularis
Conditions: cynomolgus monkey, in vivo

Compound | Fu
CNC(=O)c1ccc(N2CCN(Cc3ccc4nc(C)c(=O)[nH]c4c3F)CC2)c(F)n1 [AZD-9574] | 16%

System: not listed separately
Experiment: Oral bioavailability in Han Wistar rat at 1 mg/kg
Type: ADME, organism-based
Conditions: in vivo

Compound | bioavailability
CNC(=O)c1ccc(N2CCN(Cc3ccc4nc(C)c(=O)[nH]c4c3F)CC2)c(F)n1 [AZD-9574] | 50%

System: not listed separately
Experiment: Intrinsic clearance in human liver microsomes
Type: ADME, Microsome
Conditions: read-out: CLH

Compound | microsomal CLint
CCc1nc2ccc(CN3CCN(c4ccc(C(=O)NC)nc4F)CC3)cc2[nH]c1=O | 8 µL/min/mg
CCc1nc2ccc(CN3CCN(c4ccc(F)nc4C)CC3)cc2[nH]c1=O | 13 µL/min/mg
CCc1nc2ccc(CN3CCN(c4ccc(C(=O)NC)nc4F)CC3)c(F)c2[nH]c1=O | < 5 µL/min/mg
CNC(=O)c1ccc(N2CCN(Cc3ccc4nc(C)c(=O)[nH]c4c3F)CC2)c(F)n1 [AZD-9574] | < 3 µL/min/mg

System: not listed separately
Experiment: Lipophilicity, log D of compound at pH 7.4
Type: physicochemical
Conditions: buffer

Compound | logD
CCc1nc2ccc(CN3CCN(c4ccc(C(=O)NC)nc4F)CC3)cc2[nH]c1=O | 2.7
CCc1nc2ccc(CN3CCN(c4ccc(F)nc4C)CC3)cc2[nH]c1=O | 3.3
CCc1nc2ccc(CN3CCN(c4ccc(C(=O)NC)nc4F)CC3)c(F)c2[nH]c1=O | 2.6
CNC(=O)c1ccc(N2CCN(Cc3ccc4nc(C)c(=O)[nH]c4c3F)CC2)c(F)n1 [AZD-9574] | 1.9

System: not listed separately
Experiment: Half life in Cynomolgous monkey at 1 mg/kg, po or 0.5 mg/kg, iv
Type: ADME, organism-based, Macaca fascicularis
Conditions: cynomolgus monkey, in vivo

Compound | half-life
CNC(=O)c1ccc(N2CCN(Cc3ccc4nc(C)c(=O)[nH]c4c3F)CC2)c(F)n1 [AZD-9574] | 10.5 h

System: not listed separately
Experiment: Oral bioavailability in Beagle dog at 1 mg/kg
Type: ADME, organism-based, Canis lupus familiaris
Conditions: in vivo

Compound | bioavailability
CNC(=O)c1ccc(N2CCN(Cc3ccc4nc(C)c(=O)[nH]c4c3F)CC2)c(F)n1 [AZD-9574] | 91%

System: DLD-1
Experiment: Antitumor activity against human DLD-1 cells expressing BRCA2-/- xenografted in mouse at 3 mg/kg administered once daily for 5 weeks relative to control
Type: functional
Conditions: DLD-1, 840 h, read-out: TGI

Compound | inhibition in vivo at 3 mg/kg
CNC(=O)c1ccc(N2CCN(Cc3ccc4nc(C)c(=O)[nH]c4c3F)CC2)c(F)n1 [AZD-9574] | 43%

System: not listed separately
Experiment: Unbound fraction in Han Wistar rat plasma at 1 mg/kg, po or 1 mg/kg, iv
Type: ADME, organism-based
Conditions: in vivo

Compound | Fu
CNC(=O)c1ccc(N2CCN(Cc3ccc4nc(C)c(=O)[nH]c4c3F)CC2)c(F)n1 [AZD-9574] | 13%

System: not listed separately
Experiment: Inhibition of cell proliferation of human DLD-1 cells expressing BRCA2-/- incubated for 7 days by Sytox green dye based analysis
Type: functional
Conditions: DLD-1, 168 h

Compound | IC50
CCc1cc2ccc(CN3CCN(c4ccc(C(=O)NC)nc4)CC3)cc2[nH]c1=O | 4 nM
CCc1nc2ccc(CN3CCN(c4ccc(C(=O)NC)nc4F)CC3)cc2[nH]c1=O | 1 nM
CCc1nc2ccc(CN3CCN(c4ccc(F)nc4C)CC3)cc2[nH]c1=O | 10 nM
CCc1nc2ccc(CN3CCN(c4ccc(C(=O)NC)nc4F)CC3)c(F)c2[nH]c1=O | 5 nM
CNC(=O)c1ccc(N2CCN(Cc3ccc4nc(C)c(=O)[nH]c4c3F)CC2)c(F)n1 [AZD-9574] | 16 nM

System: not listed separately
Experiment: Volume of distribution at steady state in CD-1 mouse at 1 mg/kg, po or 0.5 mg/kg, iv
Type: ADME, organism-based
Conditions: in vivo

Compound | Vdss
CNC(=O)c1ccc(N2CCN(Cc3ccc4nc(C)c(=O)[nH]c4c3F)CC2)c(F)n1 [AZD-9574] | 2.7 L/kg

System: not listed separately
Experiment: Toxicity in mouse xenografted with human DLD-1 cells expressing BRCA2-/- assessed as body weight reduction at 3 to 30 mg/kg administered once daily for 5 weeks
Type: organism-based
Conditions: in vivo, 840 h, dose 3-30 mg/kg

Compound | Activity
CNC(=O)c1ccc(N2CCN(Cc3ccc4nc(C)c(=O)[nH]c4c3F)CC2)c(F)n1 [AZD-9574] | Toxic

Target: Voltage-gated inwardly rectifying potassium channel KCNH2 (Homo sapiens, UniProt Q12809)
Experiment: (§1) Inhibition of hERG transfected in CHO cells by electrophysiology
Type: toxicity, cell-based
Conditions: not given

Chain of Voltage-gated inwardly rectifying potassium channel KCNH2 (Q12809 whole entry): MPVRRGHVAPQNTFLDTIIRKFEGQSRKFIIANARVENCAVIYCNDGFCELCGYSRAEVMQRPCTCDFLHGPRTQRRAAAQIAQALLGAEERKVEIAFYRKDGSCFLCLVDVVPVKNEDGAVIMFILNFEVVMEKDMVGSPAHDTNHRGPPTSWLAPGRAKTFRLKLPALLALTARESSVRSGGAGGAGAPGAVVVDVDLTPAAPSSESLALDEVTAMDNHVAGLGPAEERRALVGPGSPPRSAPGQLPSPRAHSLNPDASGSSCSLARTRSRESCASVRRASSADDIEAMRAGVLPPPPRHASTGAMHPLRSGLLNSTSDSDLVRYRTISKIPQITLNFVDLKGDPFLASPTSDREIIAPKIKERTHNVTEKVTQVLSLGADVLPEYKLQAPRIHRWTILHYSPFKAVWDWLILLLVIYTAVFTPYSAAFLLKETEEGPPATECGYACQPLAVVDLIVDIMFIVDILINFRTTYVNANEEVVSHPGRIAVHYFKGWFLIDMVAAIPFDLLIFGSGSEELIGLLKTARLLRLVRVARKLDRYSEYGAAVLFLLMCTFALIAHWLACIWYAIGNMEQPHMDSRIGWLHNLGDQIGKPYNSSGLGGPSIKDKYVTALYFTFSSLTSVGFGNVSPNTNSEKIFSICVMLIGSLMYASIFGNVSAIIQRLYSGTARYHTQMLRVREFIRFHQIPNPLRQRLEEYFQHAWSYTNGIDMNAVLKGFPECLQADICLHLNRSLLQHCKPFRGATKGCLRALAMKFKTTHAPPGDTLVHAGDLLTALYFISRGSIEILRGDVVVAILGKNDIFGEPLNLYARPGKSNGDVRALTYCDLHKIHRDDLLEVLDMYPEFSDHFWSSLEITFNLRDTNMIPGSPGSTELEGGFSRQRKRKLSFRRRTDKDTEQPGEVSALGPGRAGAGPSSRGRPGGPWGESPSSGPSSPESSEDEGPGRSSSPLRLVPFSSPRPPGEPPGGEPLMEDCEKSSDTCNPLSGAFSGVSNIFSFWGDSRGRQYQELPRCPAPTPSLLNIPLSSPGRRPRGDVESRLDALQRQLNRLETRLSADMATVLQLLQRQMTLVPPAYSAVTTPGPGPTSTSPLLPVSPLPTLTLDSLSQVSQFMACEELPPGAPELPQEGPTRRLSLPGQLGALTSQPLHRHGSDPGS

Compound | IC50
CCc1nc2ccc(CN3CCN(c4ccc(F)nc4C)CC3)cc2[nH]c1=O | 11000 nM

Target: hERG (KCNH2) (Homo sapiens, UniProt Q12809)
Experiment: as §1
Type: toxicity, cell-based
Conditions: human, CHO cells transfected with hERG

Chain of hERG (KCNH2) (Q12809 whole entry): as above

Compound | IC50
CCc1cc2ccc(CN3CCN(c4ccc(C(=O)NC)nc4)CC3)cc2[nH]c1=O | 21000 nM
CCc1nc2ccc(CN3CCN(c4ccc(C(=O)NC)nc4F)CC3)c(F)c2[nH]c1=O | > 40000 nM
CNC(=O)c1ccc(N2CCN(Cc3ccc4nc(C)c(=O)[nH]c4c3F)CC2)c(F)n1 [AZD-9574] | > 40000 nM

System: not listed separately
Experiment: Volume of distribution at steady state in Han Wistar rat at 1 mg/kg, po or 1 mg/kg, iv
Type: ADME, organism-based
Conditions: in vivo

Compound | Vdss
CNC(=O)c1ccc(N2CCN(Cc3ccc4nc(C)c(=O)[nH]c4c3F)CC2)c(F)n1 [AZD-9574] | 2.3 L/kg

System: not listed separately
Experiment: Half life in Beagle dog at 1 mg/kg, po or 1 mg/kg, iv
Type: ADME, organism-based, Canis lupus familiaris
Conditions: in vivo

Compound | half-life
CNC(=O)c1ccc(N2CCN(Cc3ccc4nc(C)c(=O)[nH]c4c3F)CC2)c(F)n1 [AZD-9574] | 12 h

System: not listed separately
Experiment: Oral bioavailability in Cynomolgous monkey at 1 mg/kg
Type: ADME, organism-based, Macaca fascicularis
Conditions: cynomolgus monkey, in vivo

Compound | bioavailability
CNC(=O)c1ccc(N2CCN(Cc3ccc4nc(C)c(=O)[nH]c4c3F)CC2)c(F)n1 [AZD-9574] | 95%

Target: Poly [ADP-ribose] polymerase 2 (Homo sapiens, UniProt Q9UGN5)
Experiment: Inhibition of N-terminal 6His-tagged full-length recombinant human PARP2 by fluorescence anisotropy assay
Conditions: not given

Chain of Poly [ADP-ribose] polymerase 2 (Q9UGN5 whole entry): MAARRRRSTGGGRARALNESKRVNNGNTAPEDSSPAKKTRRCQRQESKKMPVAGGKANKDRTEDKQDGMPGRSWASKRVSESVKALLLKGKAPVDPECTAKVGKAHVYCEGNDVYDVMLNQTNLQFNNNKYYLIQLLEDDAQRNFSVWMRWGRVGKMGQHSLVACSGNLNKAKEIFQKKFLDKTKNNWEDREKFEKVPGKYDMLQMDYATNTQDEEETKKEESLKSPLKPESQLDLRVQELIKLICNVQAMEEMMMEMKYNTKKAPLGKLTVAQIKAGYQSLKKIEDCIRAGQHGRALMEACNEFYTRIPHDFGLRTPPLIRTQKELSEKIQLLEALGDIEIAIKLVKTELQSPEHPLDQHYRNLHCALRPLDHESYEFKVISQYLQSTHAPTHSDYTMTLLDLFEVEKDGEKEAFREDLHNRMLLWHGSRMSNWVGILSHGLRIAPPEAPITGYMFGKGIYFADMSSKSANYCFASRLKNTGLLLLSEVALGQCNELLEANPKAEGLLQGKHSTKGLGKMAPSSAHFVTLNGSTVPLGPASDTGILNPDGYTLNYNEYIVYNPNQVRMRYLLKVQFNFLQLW

Compound | IC50
CCc1nc2ccc(CN3CCN(c4ccc(F)nc4C)CC3)cc2[nH]c1=O | 53000 nM

System: not listed separately
Experiment: Volume of distribution at steady state in Beagle dog at 1 mg/kg, po or 1 mg/kg, iv
Type: ADME, organism-based, Canis lupus familiaris
Conditions: in vivo

Compound | Vdss
CNC(=O)c1ccc(N2CCN(Cc3ccc4nc(C)c(=O)[nH]c4c3F)CC2)c(F)n1 [AZD-9574] | 1.1 L/kg

System: DLD-1
Experiment: Antitumor activity against human DLD-1 cells expressing BRCA2-/- xenografted in mouse at 10 mg/kg administered once daily for 5 weeks relative to control
Type: functional
Conditions: DLD-1, 840 h, read-out: TGI

Compound | inhibition in vivo at 10 mg/kg
CNC(=O)c1ccc(N2CCN(Cc3ccc4nc(C)c(=O)[nH]c4c3F)CC2)c(F)n1 [AZD-9574] | 73%

System: not listed separately
Experiment: Oral bioavailability […] in CD-1 mouse at 1 mg/kg
Type: ADME, organism-based
Conditions: in vivo

Compound | bioavailability
CNC(=O)c1ccc(N2CCN(Cc3ccc4nc(C)c(=O)[nH]c4c3F)CC2)c(F)n1 [AZD-9574] | 116%

System: MDR1 (P-gp), BCRP
Experiment: Efflux ratio in MDCK-MDR1-BCRP cells
Type: ADME, cell-based, Canis lupus familiaris
Conditions: dog

Compound | efflux ratio
CCc1cc2ccc(CN3CCN(c4ccc(C(=O)NC)nc4)CC3)cc2[nH]c1=O | 2.8
CCc1nc2ccc(CN3CCN(c4ccc(C(=O)NC)nc4F)CC3)cc2[nH]c1=O | 2
CCc1nc2ccc(CN3CCN(c4ccc(F)nc4C)CC3)cc2[nH]c1=O | 1.3

System: not listed separately
Experiment: Toxicity in mouse xenografted with human DLD-1 cells expressing BRCA2-/- assessed as drug tolerance at 3 to 30 mg/kg administered once daily for 5 weeks
Type: organism-based
Conditions: in vivo, 840 h, dose 3-30 mg/kg

Compound | Activity
CNC(=O)c1ccc(N2CCN(Cc3ccc4nc(C)c(=O)[nH]c4c3F)CC2)c(F)n1 [AZD-9574] | Non-toxic

System: not listed separately
Experiment: Half life in Han Wistar rat at 1 mg/kg, po or 1 mg/kg, iv
Type: ADME, organism-based
Conditions: in vivo

Compound | half-life
CNC(=O)c1ccc(N2CCN(Cc3ccc4nc(C)c(=O)[nH]c4c3F)CC2)c(F)n1 [AZD-9574] | 6.3 h

System: not listed separately
Experiment: Unbound fraction in Beagle dog plasma at 1 mg/kg, po or 1 mg/kg, iv
Type: ADME, organism-based, Canis lupus familiaris
Conditions: in vivo

Compound | Fu
CNC(=O)c1ccc(N2CCN(Cc3ccc4nc(C)c(=O)[nH]c4c3F)CC2)c(F)n1 [AZD-9574] | 25%
